Experimental data reported in BindingDB's records for doi:10.1016/j.bioorg.2017.04.012 (Cairo University, 2017).
pIC50: −log10 of the molar value.

Tests used:
[1] = biological target: T1, Prostaglandin G/H synthase 1 (Ovis aries, UniProt P05979); assay: COX Inhibitor Screening Assay; details: pH 8; 25 °C
T1 sequence (P05979 whole entry): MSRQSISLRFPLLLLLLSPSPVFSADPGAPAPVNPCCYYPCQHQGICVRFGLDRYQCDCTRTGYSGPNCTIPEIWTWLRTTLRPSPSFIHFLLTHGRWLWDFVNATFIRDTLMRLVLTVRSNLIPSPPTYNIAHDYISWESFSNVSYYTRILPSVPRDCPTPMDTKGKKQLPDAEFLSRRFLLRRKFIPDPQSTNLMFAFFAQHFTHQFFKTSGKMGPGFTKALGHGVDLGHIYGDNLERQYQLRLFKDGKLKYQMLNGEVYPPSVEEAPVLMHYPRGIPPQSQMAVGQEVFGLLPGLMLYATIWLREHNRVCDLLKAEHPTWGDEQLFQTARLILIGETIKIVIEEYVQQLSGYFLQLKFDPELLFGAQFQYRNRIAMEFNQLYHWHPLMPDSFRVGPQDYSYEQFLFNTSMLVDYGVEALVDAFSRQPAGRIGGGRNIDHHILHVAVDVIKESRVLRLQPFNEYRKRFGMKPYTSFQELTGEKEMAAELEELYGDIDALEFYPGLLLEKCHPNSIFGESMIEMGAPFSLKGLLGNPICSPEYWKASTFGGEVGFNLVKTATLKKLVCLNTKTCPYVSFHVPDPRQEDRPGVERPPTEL
Description: (§1) Dilute 3 mL of assay buffer concentrate with 27 mL of HPLC - grade water. This final assay buffer (0.1 M Tris-HCl, pH 8) should be used for dilution of heme and COX enzymes prior to assaying. This vial contains a solution of heme in dimethylsulphoxide. Dilute 88 μL of heme with 1.912 mL of diluted assay buffer prior to use. A vial contains a solution of ovine COX-1 and should be kept on ice when thawed. Dilute 200 μL of enzyme with 400 μL of diluted assay buffer and store on ice. A vial contains a solution of ovine COX-2 and should be kept on ice when thawed. Dilute 200 μL of enzyme with 400 μL of diluted assay buffer and store on ice. A vial contains a solution or arachidonic acid in ethanol. […] Use the prepared arachidonic acid solution within 30 min. A 20 μL aliquot will yield a final concentration of 100 μM in the wells. A vial contains 0.1 M potassium hydroxide (KOH). A vial contains a solution of TMPD. Background wells: add 160 μL of assay buffer, and 10 μL of heme to three wells. 100% Initial Activity wells: add 150 μL assay buffer, 10 μL of heme, and 10 μL of enzyme (either COX-1 or COX-2) to three wells. Inhibitor wells: add 150 μL of assay buffer, 10 μL of heme, and10 μL of enzyme (either COX-1 or COX-2) to three wells. Add 10 μL of inhibitor to the inhibitor wells and 10 μL of solvent (methanol, dimethylsulphoxide or ethanol) to the 100% Initial Activity wells and background wells, this process was repeated three times. Carefully shake the plate for a few seconds and incubate for five minutes at 25 °C. Add 20 μL of the colorimetric substratesolution to all the wells that you are using. Add 20 μL of arachidonic acid to all the wells you are using. Carefully shake the plate for few seconds and incubate for five minutes at 25 °C. Read the absorbance at 590 nm using a plate reader.

[2] = biological target: T2, Prostaglandin G/H synthase 2 (Ovis aries, UniProt P79208); assay: COX Inhibitor Screening Assay; details: pH 8; 25 °C
T2 sequence (P79208 whole entry): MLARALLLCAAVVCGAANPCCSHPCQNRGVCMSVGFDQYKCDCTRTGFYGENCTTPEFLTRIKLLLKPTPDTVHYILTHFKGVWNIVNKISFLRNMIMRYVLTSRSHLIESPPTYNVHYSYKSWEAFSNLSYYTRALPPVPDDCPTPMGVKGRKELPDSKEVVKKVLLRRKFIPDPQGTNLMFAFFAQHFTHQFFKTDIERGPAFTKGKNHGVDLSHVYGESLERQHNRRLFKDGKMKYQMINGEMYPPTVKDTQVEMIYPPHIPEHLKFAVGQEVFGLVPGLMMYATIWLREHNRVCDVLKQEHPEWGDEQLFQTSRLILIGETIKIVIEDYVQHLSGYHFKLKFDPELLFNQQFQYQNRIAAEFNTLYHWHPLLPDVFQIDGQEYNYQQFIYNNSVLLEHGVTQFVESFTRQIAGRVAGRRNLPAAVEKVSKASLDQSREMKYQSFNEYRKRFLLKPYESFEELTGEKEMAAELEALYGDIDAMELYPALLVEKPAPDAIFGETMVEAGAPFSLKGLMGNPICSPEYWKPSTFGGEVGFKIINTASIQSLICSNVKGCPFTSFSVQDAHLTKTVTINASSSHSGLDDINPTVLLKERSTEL
Description: as §1

Compound | pIC50 [1] | pIC50 [2]
O=C1OC(c2cccnc2)=N/C1=C\c1cccnc1 [2-(pyridin-3-yl)-4-(pyridin-3-ylmethylene)oxazol-5(4H)-one (IIIg)] | 6.47 | 7.12
O=C1NN(c2ccccc2)C(c2cccnc2)=N/C1=C/c1cccnc1 [2-Phenyl-3-(pyridin-3-yl)-5-(pyridin-3-ylmethylene)-1,2-dihydro-1,2,4-triazin-6(5H)-one (IVg)] | 7.08 | 7.85
O=C1OC(c2cccnc2)=N/C1=C\c1ccccc1O [4-(2-Hydroxybenzylidene)-2-(pyridin-3-yl)oxazol-5(4H)-one (IIIf)] | 6.36 | 7.07
CN(C)c1ccc(/C=C2/N=C(c3cccnc3)OC2=O)cc1 [4-(4-(Dimethylamino)benzylidene)-2-(pyridin-3-yl)oxazol-5(4H)-one (IIIe)] | 7.10 | 7.72
O=C1OC(c2cccnc2)=N/C1=C/c1ccc(Cl)cc1 [4-(4-Chlorobenzylidene)-2-(pyridin-3-yl)oxazol-5(4H)-one (IIIb)] | 6.35 | 6.97
O=C1OC(c2cccnc2)=N/C1=C/c1ccc(O)cc1 [4-(4-Hydroxybenzylidene)-2-(pyridin-3-yl)oxazol-5(4H)-one (IIIc)] | 6.57 | 7.62
COc1ccc(/C=C2/N=C(c3cccnc3)OC2=O)cc1 [4-(4-Methoxybenzylidene)-2-(pyridin-3-yl)oxazol-5(4H)-one (IIId)] | 6.68 | 7.23
O=C1OC(c2cccnc2)=N/C1=C\c1ccccc1 [4-Benzylidene-2-(pyridin-3-yl) oxazol-5(4H)-one (IIIa)] | 6.36 | 7.11
O=C1NN(c2ccccc2)C(c2cccnc2)=N/C1=C/c1ccccc1O [5-(2-Hydroxybenzylidene)-2-phenyl-3-(pyridin-3-yl)-1,2-dihydro-1,2,4-triazin-6(5H)-one (IVf)] | 7.07 | 7.77
CN(C)c1ccc(/C=C2/N=C(c3cccnc3)N(c3ccccc3)NC2=O)cc1 [5-(4-(Dimethylamino)benzylidene)-2-phenyl-3-(pyridin-3-yl)-1,2-dihydro-1,2,4-triazin-6(5H)-one (IVe)] | 6.94 | 7.72
O=C1NN(c2ccccc2)C(c2cccnc2)=N/C1=C/c1ccc(Cl)cc1 [5-(4-Chlorobenzylidene)-2-phenyl-3-(pyridin-3-yl)-1,2-dihydro-1,2,4-triazin-6(5H)-one (IVb)] | 6.80 | 7.47
O=C1NN(c2ccccc2)C(c2cccnc2)=N/C1=C/c1ccc(O)cc1 [5-(4-Hydroxybenzylidene)-2-phenyl-3-(pyridin-3-yl)-1,2-dihydro-1,2,4-triazin-6(5H)-one (IVc)] | 7.02 | 7.72
COc1ccc(/C=C2/N=C(c3cccnc3)N(c3ccccc3)NC2=O)cc1 [5-(4-Methoxybenzylidene)-2-phenyl-3-(pyridin-3-yl)-1,2-dihydro-1,2,4-triazin-6(5H)-one (IVd)] | 6.97 | 
O=C1NN(c2ccccc2)C(c2cccnc2)=N/C1=C/c1ccccc1 [5-Benzylidene-2-phenyl-3-(pyridin-3-yl)-1,2-dihydro-1,2,4-triazin-6(5H)-one (IVa)] | 6.82 | 7.46
